Entries after “also recorded” stand apart in the source; their conditions may differ.
Key:
Toxicity in mice = details: for LD50: mouse, in vivo
[1] = system: human peripheral blood lymphocytes; test: Mitogen (PHA) induced human lymphocyte proliferation; assay type: cell-based; details: plus = immunostimulating, minus = immunoinhibiting, 0 = neither
guinea pig macrophages = test: Lymphokine (MMF) induced guinea pig macrophage proliferation; assay type: cell-based; details: plus = immunostimulating, minus = immunoinhibiting, 0 = neither
Description: 3. The macrophage represents a subpopulation of white blood cells which is an important component of the immune system in control of both cellular and humoral immunity. The assay system described below evaluates the substances studied as potentiators of macrophage function.
Phytohemagglutinin (PHA) (HA-17) was purchased from Burroughs Wellcome. A preparation containing Macrophage Mitogen Factor (MMF) and Macrophage Activating Factor (MAF) was prepared from antigen-stimulated immune lymph node lymphocytes (guinea pig) as previously described by Hadden et al, Nature 257, 483-485 (1975). […] The active fraction was employed in both the proliferation and activation assays.
Ficoll-hypaque purified human peripheral blood lymphocytes were prepared and PHA-induced lymphocyte proliferation was assayed by the incorporation of tritiated thymidine as described in Hadden et al., Cell. Immunol. 20, 98-103 (1975). Each compound was analyzed in the presence of suboptimal, optimal and supraoptimal concentrations of PHA (0.001, 0.01, 0.1 units/ml respectively). Paraffin oil-induced guinea pig peritoneal macrophages were prepared and incubated as monolayer culture (>98% pure macrophages). Lymphokine (MMF)-induced proliferation was assayed by the incorporation of tritiated thymidine at 3 and 5 days of culture as described, Hadden et al, Nature 257, 483-485 (1975). Lymphokine (MAF)-induced macrophage activation to kill Listeria monocytogenes following 5 days of culture in the presence or absence of MAF was performed during a 6 hour period as described in Hadden and England, Immunopharmacology, pages 87-100 (Plenum Press, 1977). Phagocytosis was quantitated during a 20-minute exposure to Listeria monocytogenes by counting the number of macrophages containing bacteria and the number of bacteria per phagocytic cell on gram stained monolayers in Labtek chambers. Intracellular killing of bacteria was evaluated by counting the number of cells containing bacteria and the number of bacteria/cell 6 hours after the initial 20 minute exposure. Parallel experiments in which macrophages were lysed and intracellular bacteria were cultured confirm the validity of bacterial activity determined by this manner in this system. The drugs were employed in each of the three systems over serial log concentration range in triplicate in the presence and absence of mitogen or lymphokine. Each type of experiment was performed at least three times. Previous experiments indicate a parallelism of response to pharmacologic modulation in the proliferation and achivation assays.
(§1) Table 4 above presents the results of an evaluation of a number of these subject compounds as potentiators of the immune response. Three different test systems were used. The first involves a measure of the ability of the test compound to enhance the ability of mouse lymphocytes to proliferate in response to a plant mitogen (Con A). The second involves measuring the ability of the test compounds to enhance human lymphocyte proliferation in response to a second plant mitogen (PHA). The third system measures the ability of these test substances to enhance macrophage proliferation in response to a natural lymphokine (MMF, Macrophage Mitogenic Factor).

influenza virus [2] = test: microbe, parasite or virus in culture; assay type: cell-based, influenza virus Type A/USSR 90 (HeLa cell cultures)
immune response = test: Immunomodulating activity (overall); assay type: cell-based
Description: (§2) The following three assay procedures are used to evaluate the ability of the test substances to modulate the activity of several classes of cells in the immune system. In these systems it is possible to identify both immunopotentiating activity (evidence by an enhancement of the parameter examined) as well as immunosuppressant activity (evidenced by an inhibition of the parameter examined).
as §1

mouse lymphocytes = test: Mitogen (Con A) induced mouse lymphocyte (spleen cell) proliferation; assay type: cell-based; details: for Maximum Percent Change, Mitogen Induced (Con A) Mouse Lymph. Prolif.: plus = immunostimulating, minus = immunoinhibiting, 0 = neither
Description: as §2
1. Mitogen-Induced Mouse Spleen Cell Assay
Mouse spleen cells contain a population of both B and T lymphocytes which can be stimulated by a number of foreign substances (e.g., plant mitogens such as Con A) to proliferate. This enhanced proliferation is an indication of enhanced cell mediated immunity. The method below describes the system used to evaluate test substances as immunopotentiators.
Concanavalin A (Calbiochem, La Jolla, California), Lot #210073, lyophilized in NaCl, was prepared first as a 1% solution and diluted as a 2×concentration for each dilution (0.5, 1.0, 2.5 μg/ml).
Six to eight week old male Balb/c and C3 H inbred mice were obtained from the following sources: Flow Research Animals, Inc., Dublin, Virginia; Charles River Breeding Laboratories, Wilmington, Massachusetts; Laboratory Supply Company, Indianapolis, Indiana; and Lionel Strong Foundation, San Diego, California.
Three to five mice were sacrificed by cervical dislocation and the spleens aseptically removed. Pooled spleens were minced and teased with sterile forceps; then strained through a double layer of nylon mesh. The cell suspension was washed once with 15 ml of RPMI 1640 supplemented with 5% fetal calf serum and antibiotics. Cells were cultured at a concentration of 10^6 cells/0.1 ml/well in micro-plates. Cultures were incubated in the presence or absence of mitogen in a humidified atmosphere containing 5% CO2 for 48 hours. The test compound was added to cultures at various concentrations concommitant with mitogen.
Proliferation was assayed by the degree of incorporation of 1.0 μCi of [^3 H] thymidine over an 18 hour incubation period. Cultures were harvested by a MASH unit (Otto Hiller Co., Madison, Wisconsin) and thymidine incorporation was assayed by liquid scintillation spectrometry. Cultures were performed in triplicate and data are expressed as means plus or minus the standard error of the experimental means. Drug stimulation indices over control values were also calculated and portrayed graphically.
as §1

spleen cells = test: In vitro treatment of Con A stimulated mouse spleen cells; assay type: cell-based; details: for ability to augment Con A stimulation (in words): compound 1 μg/ml, Con A 5 μg/ml
Description: The following day, each group was sacrificed and the spleens removed and pooled. […] The cell concentration of each preparation was determined by a Coulter counter and adjusted to 5×10^6 cells/ml with RPMI medium.
Microtiter assays were carried out in 0.2 ml incubations, containing 5×10^5 cells and Con A or Con A and compounds at the indicated concentrations. All assays were performed with 6 replicates and compared with a blank assay containing only cells. The assay plates were incubated at 37° in 5% CO2 for 4 days. During the final 18-20 hours of incubation, 0.5 ml of ^3 HTdR (10 μCi/ml, 6 Ci /m mole) were added to each culture. The cultures were harvested with a multiple automatic sample harvester (MASH) unit and the incorporated ^3 HTdR determined with a Beckman LS 8000 liquid scintillation counter, as a measure of cell proliferation.

influenza virus [3] = test: Anti-influenza activity (overall); assay type: cell-based, several strains of A and B sub-types; details: for inhibit the replication of different strains of influenza virus (number of strains): concentrations ranging from 1-150 μg/ml

| Compound | Maximum Percent Change, Mitogen Induced (PHA) Human Lymph. Prolif. ([1]; 1.0-10 (unit not given)) [%] | Maximum Percent Change, Lymphokine Induced (MMF) Guinea Pig Mac. Prolif. (guinea pig macrophages; 1.0-10 (unit not given)) [%] | Maximum Percent Change, Lymphokine Induced (MMF) Guinea Pig Mac. Prolif. (guinea pig macrophages; .01-1.0 (unit not given)) [%] | % Inhibition of Hemadsorption Foci (influenza virus [2]; Test Compound Conc. <10 μg/ml) [%] | potentiation of the immune response (in words) (immune response) | % Stimulation, Mitogen Induced Murine Lymphocyte Proliferation (mouse lymphocytes; 01-1.0 μg/ml) [%] | % Stimulation, Mitogen Induced Murine Lymphocyte Proliferation (mouse lymphocytes; 1.0-10 μg/ml) | Maximum Percent Change, Mitogen Induced (Con A) Mouse Lymph. Prolif. (mouse lymphocytes; 1.0-10 (unit not given)) [%] | % Stimulation, Mitogen Induced Murine Lymphocyte Proliferation (mouse lymphocytes; 10-100 μg/ml) | Maximum Percent Change, Mitogen Induced (Con A) Mouse Lymph. Prolif. (mouse lymphocytes; 10-100 (unit not given)) [%] | Maximum Percent Change, Mitogen Induced (Con A) Mouse Lymph. Prolif. (mouse lymphocytes; .01-1.0 (unit not given)) [%] | ability to augment Con A stimulation (in words) (spleen cells) | inhibit the replication of different strains of influenza virus (number of strains) (influenza virus [3]) | other results |
| --- | --- | --- | --- | --- | --- | --- | --- | --- | --- | --- | --- | --- | --- | --- |
| CCCCCC[C@H]([C@H](C)O)n1cnc2c(=O)[nH]cnc21 (relative stereo) [NPT 15392, ERYTHRO-9-(2-HYDROXY-3-NONYL)HYPOXANTHINE] | 20 | 23 | 33 | 86 | potentiation of the immune response has been observed | > 50 | 30-50% | 162 | 30-50% | -72 | 172 | marked ability to augment the Con A stimulation | at least 4 different strains | drug related mortality (Toxicity in mice; mice, doses of 1000 mg/kg): no drug related mortality was noted; Maximum Percent Change, Mitogen Induced (PHA) Human Lymph. Prolif. ([1]; 10-100 (unit not given)): -50%; Maximum Percent Change, Mitogen Induced (PHA) Human Lymph. Prolif. ([1]; .01-1.0 (unit not given)): 11-15%; inhibition at 100 µg/mL (influenza virus [2]; unidentified influenza virus, read-out: % Inhibition of Hemadsorption Foci, Test Compound Conc. >100 μg/ml): 100%; fold induction at 1 µg/mL (spleen cells; Mus musculus, 96 h, Con A 5 μg/l as printed, compound 1 μg/ml in vitro, read-out: stimulation over Con A alone): 2.8; anti-influenza activity (in words) (influenza virus [3]; compound by itself): significant anti-influenza activity |
| CCCCCC[C@H]([C@H](C)O)n1cnc2c(=O)[nH]cnc21 (relative stereo) [NPT 15410] | 60 | 23 | 12 | 58 | potentiation of the immune response has been observed | > 50 | 30-50% | 40 | 30-50% | 40 | 140 | marked ability to augment the Con A stimulation | at least 4 different strains | LD50 (Toxicity in mice): 4300 mg/kg; LD50 (Toxicity in mice; sc): 4900 mg/kg; % Inhibition of Hemadsorption Foci (influenza virus [2]; Test Compound Conc. >100 μg/ml): 96%; Potentiation of immunopotentiation by DIP.PAcBA salt (immune response; salt compared with parent compound): Yes; stimulation over Con A alone (spleen cells; Con A 5 μg/l as printed, compound 1 μg/ml in vitro, 5760 min): 3.3 fold; potentiation of anti-influenza activity by DIP.PAcBA salt (influenza virus [3]): does not potentiate the anti-influenza activity; also recorded: equally active |
